# According to patent US12065436B2, “Cardiac sarcomere inhibitors” (Cytokinetics, Inc., priority 2018, dated 2024):
# Molecular target: bovine cardiac myofibrils (full-length cardiac myosin ATPase in the native sarcomere) (Bos taurus (Bovine), UniProt Q9BE39)
# Assay: Skinned bovine cardiac myofibril ATPase assay (PK/LDH-coupled)
# Format: biochemical
# Conditions: Ca2+ activating to 75% of maximal rate; for CDMF75 IC15: concentration giving 15% inhibition; for IC50: read-out: CDMF75 IC50
# Description: To evaluate the effect of compounds on the ATPase activity of full-length cardiac myosin in the context of the native sarcomere, skinned myofibril assays were performed. Bovine cardiac myofibrils were obtained by homogenizing bovine cardiac left ventricular tissue in the presence of a detergent such as triton X-100. Such treatment removes membranes and a majority of the soluble cytoplasmic proteins but leaves intact the cardiac sarcomeric acto-myosin apparatus. Myofibril preparations retain the ability to hydrolyze ATP in an Ca^2+ regulated manner. ATPase activities of such myofibril preparations in the presence and absence of compounds were assayed at Ca^2+ concentrations activating to a defined fraction of the maximal rate (i.e., 25%, 75%). Small molecule agents were assessed for their ability to inhibit the steady-state ATPase activity of bovine cardiac myofibrils using pyruvate kinase and lactate dehydrogenase (PK/LDH)-coupled enzyme system. This assay regenerates myosin-produced ADP into ATP by oxidizing NADH, producing an absorbance change at 340 nm. Prior to testing small molecule agents, the bovine cardiac myofibrils were assessed for their calcium responsiveness and the calcium concentration that achieves either a 50% (pCa50) or 75% (pCa75) activation of the myofibril system was chosen as the final condition for assessing the inhibitory activity of the small molecule agents. All enzymatic activity was measured in a buffered solution containing 12 mM PIPES (piperazine-N,N′-bis(2-ethanesulfonic acid), 2 mM magnesium chloride at pH 6.8 (PM 12 buffer). Final assay conditions were 1 mg/mL of bovine cardiac myofibrils, 4 U/mL pyruvate kinase, 6 U/mL lactate dehydrogenase, 50 μM ATP, 0.1 mg/mL BSA (bovine serum albumin), 10 ppm antifoam, 1 mM DTT, 0.5 mM NADH, 1.5 mM PEP, 0.6 mM EGTA, and an amount of CaCl2) sufficient to achieve either 50% or 75% activation of the myofibril ATPase activity.
# Chain of bovine cardiac myofibrils (full-length cardiac myosin ATPase in the native sarcomere) (Q9BE39 whole entry): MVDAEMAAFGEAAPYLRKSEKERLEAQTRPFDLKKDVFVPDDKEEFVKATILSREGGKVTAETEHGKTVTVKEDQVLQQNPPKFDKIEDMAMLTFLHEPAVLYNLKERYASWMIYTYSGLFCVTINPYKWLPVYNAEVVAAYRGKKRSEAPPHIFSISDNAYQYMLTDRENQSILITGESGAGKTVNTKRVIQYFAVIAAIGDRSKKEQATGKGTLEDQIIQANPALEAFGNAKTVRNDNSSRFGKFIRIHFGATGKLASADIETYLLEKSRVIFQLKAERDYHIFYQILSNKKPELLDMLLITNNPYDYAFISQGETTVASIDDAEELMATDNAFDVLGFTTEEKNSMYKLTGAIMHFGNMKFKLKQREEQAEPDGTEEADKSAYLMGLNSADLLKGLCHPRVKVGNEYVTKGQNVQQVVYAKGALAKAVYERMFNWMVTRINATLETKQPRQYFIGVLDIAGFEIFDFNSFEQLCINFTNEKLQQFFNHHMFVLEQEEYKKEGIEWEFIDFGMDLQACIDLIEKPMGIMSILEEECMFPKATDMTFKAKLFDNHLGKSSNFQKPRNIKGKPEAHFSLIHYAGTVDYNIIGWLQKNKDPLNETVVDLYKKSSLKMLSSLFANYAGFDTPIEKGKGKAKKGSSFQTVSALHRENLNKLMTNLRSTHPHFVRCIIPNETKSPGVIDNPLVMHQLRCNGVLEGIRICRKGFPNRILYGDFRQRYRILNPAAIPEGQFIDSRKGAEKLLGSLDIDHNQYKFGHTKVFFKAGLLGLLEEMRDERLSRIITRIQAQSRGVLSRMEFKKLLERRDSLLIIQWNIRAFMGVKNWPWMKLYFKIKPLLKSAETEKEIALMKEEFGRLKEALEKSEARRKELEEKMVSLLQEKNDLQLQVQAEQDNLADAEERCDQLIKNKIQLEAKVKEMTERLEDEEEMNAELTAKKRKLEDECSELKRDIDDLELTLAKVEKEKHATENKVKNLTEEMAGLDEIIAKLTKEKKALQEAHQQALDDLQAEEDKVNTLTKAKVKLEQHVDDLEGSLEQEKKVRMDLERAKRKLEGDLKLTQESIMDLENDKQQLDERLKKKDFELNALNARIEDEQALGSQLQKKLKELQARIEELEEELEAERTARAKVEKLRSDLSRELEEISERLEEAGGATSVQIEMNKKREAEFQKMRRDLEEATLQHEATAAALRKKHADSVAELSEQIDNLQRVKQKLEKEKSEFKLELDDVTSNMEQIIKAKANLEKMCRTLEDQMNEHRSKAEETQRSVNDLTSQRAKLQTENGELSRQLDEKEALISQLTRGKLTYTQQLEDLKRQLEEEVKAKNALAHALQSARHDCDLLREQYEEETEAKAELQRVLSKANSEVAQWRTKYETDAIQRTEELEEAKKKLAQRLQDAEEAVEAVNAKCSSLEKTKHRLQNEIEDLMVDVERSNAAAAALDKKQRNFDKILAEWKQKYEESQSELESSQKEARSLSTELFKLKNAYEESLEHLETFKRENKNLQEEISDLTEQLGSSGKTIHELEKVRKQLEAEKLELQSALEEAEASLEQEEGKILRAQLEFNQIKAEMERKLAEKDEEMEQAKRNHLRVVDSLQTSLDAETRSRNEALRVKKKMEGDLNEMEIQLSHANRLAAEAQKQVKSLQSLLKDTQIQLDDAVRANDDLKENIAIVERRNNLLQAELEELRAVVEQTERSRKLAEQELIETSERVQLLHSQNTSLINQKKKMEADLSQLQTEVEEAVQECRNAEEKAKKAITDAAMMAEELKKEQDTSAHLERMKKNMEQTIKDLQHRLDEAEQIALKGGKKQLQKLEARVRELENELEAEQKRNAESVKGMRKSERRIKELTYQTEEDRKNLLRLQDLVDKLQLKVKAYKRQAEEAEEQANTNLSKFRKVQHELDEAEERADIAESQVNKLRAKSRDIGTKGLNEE
# Chain of bovine cardiac myofibrils (full-length cardiac myosin ATPase in the native sarcomere) (P85100 whole entry partner): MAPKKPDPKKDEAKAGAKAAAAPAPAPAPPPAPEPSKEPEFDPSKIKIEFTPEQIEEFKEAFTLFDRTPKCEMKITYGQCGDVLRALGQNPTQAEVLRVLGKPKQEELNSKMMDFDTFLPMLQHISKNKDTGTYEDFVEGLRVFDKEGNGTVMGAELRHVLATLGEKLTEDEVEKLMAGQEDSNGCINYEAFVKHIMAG
# Chain of bovine cardiac myofibrils (full-length cardiac myosin ATPase in the native sarcomere) (Q3SZE5 whole entry partner): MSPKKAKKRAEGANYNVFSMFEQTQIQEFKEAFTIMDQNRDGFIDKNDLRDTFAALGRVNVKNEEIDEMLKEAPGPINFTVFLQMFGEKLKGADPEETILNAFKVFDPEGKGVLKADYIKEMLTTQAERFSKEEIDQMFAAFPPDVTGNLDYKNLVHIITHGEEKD
CDMF75 IC15,IC50,Compound
0.5 µM,1.8 µM,"CCc1nc(-c2ccc3c(c2)CC[C@H]3NC(=O)c2cnn(CCO)c2C)no1 [Compound 572, (R)-N-(5-(5-ethyl-1,2,4-oxadiazol-3-yl)-2,3-dihydro-1H-inden-1-yl)-1-(2-hydroxyethyl)-5-methyl-1H-pyrazole-4-carboxamide]"
1.2 µM,4.5 µM,"COCc1nc(-c2ccc3c(c2)CC[C@H]3NC(=O)c2ccnc(C)c2)no1 [Compound 176, (R)-N-(5-(5-(methoxymethyl)-1,2,4-oxadiazol-3-yl)-2,3-dihydro-1H-inden-1-yl)-2-methylisonicotinamide]"
10.6 µM,> 39.2 µM,"Cc1ccc(-c2ccc3c(c2)CC[C@H]3NC(=O)c2ccnn2C)cn1 [Compound 375, (R)-1-methyl-N-(5-(6-methylpyridin-3-yl)-2,3-dihydro-1H-inden-1-yl)-1H-pyrazole-5-carboxamide]"
0.7 µM,2.4 µM,"[2H]C([2H])([2H])c1noc(-c2ccc3c(c2)OC[C@H]3NC(=O)c2ccnn2C)n1 [Compound 312, (S)-1-methyl-N-(6-(3-(methyl-d3)-1,2,4-oxadiazol-5-yl)-2,3-dihydrobenzofuran-3-yl)-1H-pyrazole-5-carboxamide]"
0.7 µM,3.2 µM,"Cc1nc(-c2ccc3c(c2)CC[C@H]3NC(=O)c2ccnc(C(F)F)c2)no1 [Compound 730, (R)-2-(difluoromethyl)-N-(5-(5-methyl-1,2,4-oxadiazol-3-yl)-2,3-dihydro-1H-inden-1-yl)isonicotinamide]"
1.6 µM,6.9 µM,"COCc1nc(-c2ccc3c(c2)CC[C@H]3NC(=O)c2cn[nH]c2)no1 [Compound 490, (R)-N-(5-(5-(methoxymethyl)-1,2,4-oxadiazol-3-yl)-2,3-dihydro-1H-inden-1-yl)-1H-pyrazole-4-carboxamide]"
1.3 µM,6.5 µM,"CC(=O)N[C@@H]1COc2cc(-c3noc(C4(C)CC4)n3)ccc21 [Compound 461, (S)-N-(6-(5-(1-methylcyclopropyl)-1,2,4-oxadiazol-3-yl)-2,3-dihydrobenzofuran-3-yl)acetamide]"
1.0 µM,3.9 µM,"CCc1nc(-c2ccc3c(c2)CC[C@H]3NC(=O)c2cnc(O)o2)no1 [Compound 638, (R)-N-(5-(5-ethyl-1,2,4-oxadiazol-3-yl)-2,3-dihydro-1H-inden-1-yl)-2-hydroxyoxazole-5-carboxamide]"
0.3 µM,0.8 µM,"CCc1cc(-c2ccc3c(c2)OC[C@H]3NC(=O)c2ccnn2C)no1 [Compound 421, (S)-N-(6-(5-ethylisoxazol-3-yl)-2,3-dihydrobenzofuran-3-yl)-1-methyl-1H-pyrazole-5-carboxamide]"
0.5 µM,1.6 µM,"Cc1c(C(=O)N[C@@H]2COc3cc(-c4noc(C(F)F)n4)ccc32)cnn1C [Compound 210, (S)-N-(6-(5-(difluoromethyl)-1,2,4-oxadiazol-3-yl)-2,3-dihydrobenzofuran-3-yl)-1,5-dimethyl-1H-pyrazole-4-carboxamide]"
1.0 µM,4.4 µM,"Cc1cc(C(=O)N[C@@H]2CCc3cc(-c4noc(C(F)F)n4)ccc32)cnn1 [Compound 687, (R)-N-(5-(5-(difluoromethyl)-1,2,4-oxadiazol-3-yl)-2,3-dihydro-1H-inden-1-yl)-6-methylpyridazine-4-carboxamide]"
15.6 µM,> 39.2 µM,"O=C(N[C@@H]1CCc2cc(-c3noc(C(F)F)n3)ccc21)C1CCOC1 (stereo partly drawn) [Compound 294, N-((R)-5-(5-(difluoromethyl)-1,2,4-oxadiazol-3-yl)-2,3-dihydro-1H-inden-1-yl)tetrahydrofuran-3-carboxamide]"
32.6 µM,39.2 µM,"CCc1nc(-c2ccc3c(c2)CC[C@H]3NC(=O)c2cnn(CC3(C)COC3)c2)no1 [Compound 507, (R)-N-(5-(5-ethyl-1,2,4-oxadiazol-3-yl)-2,3-dihydro-1H-inden-1-yl)-1-((3-methyloxetan-3-yl)methyl)-1H-pyrazole-4-carboxamide]"
0.4 µM,1.4 µM,"O=C(NC1CCc2cc(-c3noc(C(F)F)n3)ccc21)c1cnc(Cl)s1 (stereo not drawn) [Compound 8, 2-chloro-N-(5-(5-(difluoromethyl)-1,2,4-oxadiazol-3-yl)-2,3-dihydro-1H-inden-1-yl)thiazole-5-carboxamide]"
1.1 µM,4.8 µM,"Cn1cc(C(=O)NC2CCc3cc(-c4noc(C(F)F)n4)ccc32)cn1 (stereo not drawn) [Compound 7, N-(5-(5-(difluoromethyl)-1,2,4-oxadiazol-3-yl)-2,3-dihydro-1H-inden-1-yl)-1-methyl-1H-pyrazole-4-carboxamide]"
2.7 µM,11 µM,"COCc1nc(-c2ccc3c(c2)OC[C@H]3NC(=O)c2cc(CO)ccn2)no1 [Compound 713, (S)-4-(hydroxymethyl)-N-(6-(5-(methoxymethyl)-1,2,4-oxadiazol-3-yl)-2,3-dihydrobenzofuran-3-yl)picolinamide]"
0.4 µM,1.8 µM,"Cc1nc(-c2ccc3c(c2)OC[C@H]3NC(=O)c2cccc(CO)c2)no1 [Compound 717, (S)-3-(hydroxymethyl)-N-(6-(5-methyl-1,2,4-oxadiazol-3-yl)-2,3-dihydrobenzofuran-3-yl)benzamide]"
1.3 µM,4.3 µM,"Cc1nc(-c2ccc3c(c2)CCC3NC(=O)c2ccnc(N)c2)no1 (stereo not drawn) [Compound 33, 2-amino-N-(5-(5-methyl-1,2,4-oxadiazol-3-yl)-2,3-dihydro-1H-inden-1-yl)isonicotinamide]"
10.6 µM,> 39.2 µM,"O=C(N[C@@H]1CCc2cc(-c3noc(C(F)F)n3)ccc21)C1COC1 [Compound 288, (R)-N-(5-(5-(difluoromethyl)-1,2,4-oxadiazol-3-yl)-2,3-dihydro-1H-inden-1-yl)oxetane-3-carboxamide]"
2.7 µM,10.8 µM,"Cc1nc(C(=O)NC2CCc3cc(-c4noc(C(F)F)n4)ccc32)no1 (stereo not drawn) [Compound 84, N-(5-(5-(difluoromethyl)-1,2,4-oxadiazol-3-yl)-2,3-dihydro-1H-inden-1-yl)-5-methyl-1,2,4-oxadiazole-3-carboxamide]"
0.6 µM,2 µM,"Cc1nc(-c2ccc3c(c2)OCC3NC(=O)c2ccccc2)no1 (stereo not drawn) [Compound 15, N-(6-(5-methyl-1,2,4-oxadiazol-3-yl)-2,3-dihydrobenzofuran-3-yl)benzamide]"
3.6 µM,17.3 µM,"Cc1cc(C(=O)N[C@@H]2CCc3cc(-c4ncc(C)o4)ccc32)ccn1 [Compound 139, (R)-2-methyl-N-(5-(5-methyloxazol-2-yl)-2,3-dihydro-1H-inden-1-yl)isonicotinamide]"
1.0 µM,6.5 µM,"CC(C)c1nc(-c2ccc3c(c2)CC[C@H]3NC(=O)c2nnn(Cc3ccccc3)n2)no1 [Compound 500, (R)-2-benzyl-N-(5-(5-isopropyl-1,2,4-oxadiazol-3-yl)-2,3-dihydro-1H-inden-1-yl)-2H-tetrazole-5-carboxamide]"

Compound,CDMF75 IC15,IC50
"CCc1nc(-c2ccc3c(c2)OC[C@H]3NC(=O)OCCO)no1 [Compound 744, 2-hydroxyethyl N-[(3S)-6-(5-ethyl-1,2,4-oxadiazol-3-yl)-2,3-dihydro-1-benzofuran-3-yl]carbamate]",0.3 µM,1.3 µM
